# Source: US20250034184A1, “QUATERNARY PHOSPHONIUM COMPOUNDS AND USES THEREOF” (Emory University, priority 2021, published 2025)
# Like-named read-outs stand apart in the source and are kept apart here.
# Tests used:
# [1] = tested on: community-acquired methicillin-resistant S. aureus (CA-MRSA; USA 300-0114); test: microbe, parasite or virus in culture; assay type: cell-based
# [2] = tested on: Pseudomonas aeruginosa (PAO1); test: microbe, parasite or virus in culture; assay type: cell-based
# red blood cell (RBC) [3] = test: Red blood cell (RBC) lysis (Lysis20); details: RBC lysis as proxy for toxicity
# [4] = tested on: Enterococcus faecalis (OG1RF); test: microbe, parasite or virus in culture; assay type: cell-based
# [5] = tested on: methicillin-susceptible S. aureus (SH1000); test: microbe, parasite or virus in culture; assay type: cell-based
# [6] = tested on: Escherichia coli (MC4100); test: microbe, parasite or virus in culture; assay type: cell-based
# [7] = tested on: hospital-acquired methicillin-resistant S. aureus (HA-MRSA; ATCC 33591); test: microbe, parasite or virus in culture; assay type: cell-based
# red blood cell (RBC) [8] = tested on: red blood cell (RBC)
# [9] = tested on: A. baumannii pan-resistant clinical isolate, MRSN 17493; assay type: cell-based, Acinetobacter baumannii
# [10] = tested on: A. baumannii strain ATCC 19606; assay type: cell-based, Acinetobacter baumannii
# [11] = SH1000, […] DMSO carrier at highest test concentration (250 μM)
Compound,Lys20 (red blood cell (RBC) [8]),MBEC [9],MBEC [10],Minimum Inhibitory Concentration CA-MRSA [1],Minimum Inhibitory Concentration Pa [2],Minimum Inhibitory Concentration E. faecalis [4],Minimum Inhibitory Concentration MSSA [5],Minimum Inhibitory Concentration E. coli [6],Minimum Inhibitory Concentration HA-MRSA [7],other results
"CCCCCCCCCCCCCC[P+](CC[P+](CCCCCCCCCCCCCC)(c1ccccc1)c1ccccc1)(CC[P+](CCCCCCCCCCCCCC)(c1ccccc1)c1ccccc1)c1ccccc1 [P2P2P-14,14,14, ((phenyl(tetradecyl)phosphoniodiyl)bis(ethane-2,1-diyl))bis(diphenyl(tetradecyl)phosphonium)]",–,–,–,–,–,–,–,–,–,"Minimum Inhibitory Concentration CA-MRSA ([1]; USA 300-0114): 16 µM; Minimum Inhibitory Concentration Pa ([2]; P. aeruginosa PAO1): >250 µM; Lys20 (red blood cell (RBC) [3]): 1 µM; Minimum Inhibitory Concentration E. faecalis ([4]; OG1RF): 250 µM; Minimum Inhibitory Concentration MSSA [5, 11]: 16 µM; Minimum Inhibitory Concentration E. coli ([6]; MC4100): 250 µM; Minimum Inhibitory Concentration HA-MRSA ([7]; ATCC 33591): 32 µM"
"CCCCCCCCCCC[n+]1ccc(CCCc2cc[n+](CCCCCCCCCCC)cc2)cc1 [2Pyr-11,11, reference compound]",4 µM,500 µM,1000 µM,–,–,–,–,–,–,"MIC ([1]; Staphylococcus aureus, read-out: Minimum Inhibitory Concentration CA-MRSA): 2 µM; MIC ([2]; Pseudomonas aeruginosa, PAO1, read-out: Minimum Inhibitory Concentration Pa): 16 µM; MIC ([4]; Enterococcus faecalis, read-out: Minimum Inhibitory Concentration E. faecalis): 8 µM; MIC ([5]; Staphylococcus aureus, MSSA, read-out: Minimum Inhibitory Concentration MSSA): 1 µM; MIC ([6]; Escherichia coli, read-out: Minimum Inhibitory Concentration E. coli): 2 µM; MIC ([7]; Staphylococcus aureus, read-out: Minimum Inhibitory Concentration HA-MRSA): 2 µM"
"benzalkonium chloride [BAC, reference compound]",16 µM,2000 µM,2000 µM,4 µM,250 µM,250 µM,4 µM,63 µM,8 µM,–
octadecyltriphenylphosphonium [TPP-18],–,–,–,–,–,–,–,–,–,"Minimum Inhibitory Concentration CA-MRSA ([1]; USA 300-0114): 8 µM; Minimum Inhibitory Concentration Pa ([2]; P. aeruginosa PAO1): 125 µM; Lys20 (red blood cell (RBC) [3]): 4 µM; Minimum Inhibitory Concentration E. faecalis ([4]; OG1RF): 16 µM; Minimum Inhibitory Concentration MSSA [5, 11]: 4 µM; Minimum Inhibitory Concentration E. coli ([6]; MC4100): 125 µM; Minimum Inhibitory Concentration HA-MRSA ([7]; ATCC 33591): 8 µM"
CCCCCCCCCC[N+](C)(C)CCCCCCCCCC.[Cl-] [DDAC],–,500 µM,1000 µM,–,–,–,–,–,–,–
"CCCCCCCCCCCC[P+](c1ccccc1)(c1ccccc1)c1ccccc1 [TPP-12, dodecyltriphenylphosphonium]",8 µM,–,–,1 µM,63 µM,63 µM,0.5 µM,250 µM,2 µM,–
"CCCCCCCCCCCCCCCC[P+](c1ccccc1)(c1ccccc1)c1ccccc1 [TPP-16, hexadecyltriphenylphosphonium]",4 µM,–,–,2 µM,16 µM,4 µM,2 µM,16 µM,4 µM,fold increase in activity compared to BAC and CPC [2]: ~16 fold; fold increase in activity compared to BAC and CPC [4]: ~63 fold
